{"source": "patent US8138392B2", "about": "“Disease resistant plants” (The Samuel Roberts Noble Foundation, Inc., priority 2008, dated 2012)", "tested_on": "P. omnivora", "assay": "in vitro fungal growth inhibition assay", "assay_type": "cell-based, Phymatotrichopsis omnivora", "note": "“Also recorded” adds a separate entry of the source.", "data": [{"smiles": "O=c1cc(-c2ccc(O)cc2)oc2cc(O)ccc12", "note": "[7,4-dihydroxyflavone]", "values": [{"measurement": "fungal growth inhibition in in vitro assays", "setting": "at 0.1 mM", "value": "inhibited fungal growth"}, {"measurement": "inhibitory activity towards P. omnivora in in vitro assays", "setting": "no concentration stated", "value": "very high inhibitory activity; also recorded: inhibitory to P. omnivora"}]}]}
